How the values were obtained:
aconitin arrhythmia = aconitin arrhythmia model on rats (time to ventricular extrasystole, tachycardia, fibrillation; ED125, ED150); type: in vivo, Wistar rats; conditions: for ED125 / ED150: Rattus norvegicus, iv, 95% confidence limits on the next line; for ED125: infusion time to extrasystol 7.6 (control 6.1 minutes), read-out: ED125 (delay of chamber extrasystol); for ED150: infusion time to extrasystol 9.2 (control 6.1 minutes), read-out: ED150 (delay of chamber extrasystol); for time to chamber extrasystol, aconitin infusion / time to chamber tachycardia, aconitin infusion / time to fibrillation, aconitin infusion: 5 minutes before aconitin infusion, X ± S.E.M.
Protocol: Wistar rats (200-220 g) are narcotized with urethane. The vena jugularis is connected with a polyethylene catheter. Using standard EKG-II leads, a control EKG is taken. The test substance and the physiological saline solution used as control are intravenously administered 5 minutes before the aconitin infusion. The aconitin solution is continuous administered at a dose of 5 mg/kg at a rate of 0.1 ml (100 g/minute) as an infusion into the vena jugularis. The progress is monitored by the EKG isoelectric line.
During the test the time to formation of the ventricular extrasystole, ventricular tachycardia and fibrillation were determined.
On the basis of the late occurrence of the ventricula extrasystole, ED125 and ED150 values were determined.

mice = test: acute toxicity on mice (LD50, Litchfield-Wilcoxon, after a week); type: in vivo; conditions: i.v., 95% confidence limits on the next line, 10080 min
Protocol: (§1) On the basis of the late occurrence of the ventricula extrasystole, ED125 and ED150 values were determined. The acute toxicities were determined on mice (CELP strain and the LD50 value was calculated after a week using the Litchfield-Wilcoxon method. The antiarrhythmically effective dosage or the LD50 value for several compounds of the various compound types are collected in Table III.

[1] = as above; type: in vivo; conditions: mouse, in vivo, iv, 95% confidence limits on the next line
Protocol: as §1

Structure (SMILES): CC1(C)C=C(C(=O)NC(c2ccccc2)c2ccccc2)C(C)(C)N1 [Compound 6]
- ED125 (aconitin arrhythmia): 5.4 mg/kg
- ED150 (aconitin arrhythmia): 23.1 mg/kg
- LD50 (acute toxicity) (mice): 63 mg/kg

Structure (SMILES): Cc1cccc(C)c1OCC(C)NC(=O)C1=CC(C)(C)NC1(C)C (stereo not shown) [Compound 9, 2-[N(2,2,5,5-tetramethyl-2,5-dihydro-3-pyrroline-3-carbonyl)]-3-(2,6-dimethyl-phenoxy)-aminopropane]
- time to chamber extrasystol, aconitin infusion (aconitin arrhythmia; 0.5 mg/kg i.v.): 7.2 ± 0.06 min
- time to chamber tachycardia, aconitin infusion (aconitin arrhythmia; 0.5 mg/kg i.v.): 11.1 ± 0.68 min
- time to fibrillation, aconitin infusion (aconitin arrhythmia; 0.5 mg/kg i.v.): 14.6 ± 0.48 min
- time to chamber extrasystol, aconitin infusion (aconitin arrhythmia; 1.0 mg/kg i.v.): 9.2 ± 0.10 min
- time to chamber tachycardia, aconitin infusion (aconitin arrhythmia; 1.0 mg/kg i.v.): 15.3 ± 0.29 min
- time to fibrillation, aconitin infusion (aconitin arrhythmia; 1.0 mg/kg i.v.): 20.9 ± 0.50 min
- time to chamber extrasystol, aconitin infusion (aconitin arrhythmia; 2.0 mg/kg i.v.): 13.2 ± 1.21 min
- time to chamber tachycardia, aconitin infusion (aconitin arrhythmia; 2.0 mg/kg i.v.): 18.9 ± 0.13 min
- time to fibrillation, aconitin infusion (aconitin arrhythmia; 2.0 mg/kg i.v.): 24.6 ± 0.79 min
- ED125 (aconitin arrhythmia): 0.6 mg/kg
- ED150 (aconitin arrhythmia): 0.9 mg/kg
- LD50 (acute toxicity) (mice): 11 mg/kg

Structure (SMILES): Cc1cccc(C)c1OCC(C)NC(=O)C1CC(C)(C)NC1(C)C (stereo not shown) [Compound 11, 2-[N-(2,2,5,5-tetramethyl-3-pyrrolidine-3-carbonyl)]-3-(2,6-dimethyl-phenoxy)-amino propane]
- time to chamber extrasystol, aconitin infusion (aconitin arrhythmia; 0.25 mg/kg i.v.): 7.6 ± 0.24 min
- time to chamber tachycardia, aconitin infusion (aconitin arrhythmia; 0.25 mg/kg i.v.): 11.3 ± 0.88 min
- time to fibrillation, aconitin infusion (aconitin arrhythmia; 0.25 mg/kg i.v.): 15.9 ± 0.49 min
- time to chamber extrasystol, aconitin infusion (aconitin arrhythmia; 0.5 mg/kg i.v.): 9.9 ± 0.40 min
- time to chamber tachycardia, aconitin infusion (aconitin arrhythmia; 0.5 mg/kg i.v.): 15.3 ± 0.52 min
- time to fibrillation, aconitin infusion (aconitin arrhythmia; 0.5 mg/kg i.v.): 19.1 ± 0.89 min
- time to chamber extrasystol, aconitin infusion (aconitin arrhythmia; 1.0 mg/kg i.v.): 13.2 ± 1.29 min
- time to chamber tachycardia, aconitin infusion (aconitin arrhythmia; 1.0 mg/kg i.v.): 19.3 ± 1.24 min
- time to fibrillation, aconitin infusion (aconitin arrhythmia; 1.0 mg/kg i.v.): 23.5 ± 0.42 min
- ED125 (aconitin arrhythmia): 0.26 mg/kg
- ED150 (aconitin arrhythmia): 0.39 mg/kg
- LD50 at 168 h [1]: 1.96 mg/kg

Structure (SMILES): Cc1cccc(C)c1NC(=O)CNC(=O)C1=CC(C)(C)NC1(C)C [Compound 19]
- time to chamber extrasystol, aconitin infusion (aconitin arrhythmia; 1.0 mg/kg i.v.): 6.6 min
- time to chamber tachycardia, aconitin infusion (aconitin arrhythmia; 1.0 mg/kg i.v.): 10.4 ± 2.58 min
- time to fibrillation, aconitin infusion (aconitin arrhythmia; 1.0 mg/kg i.v.): 15.1 ± 0.70 min
- time to chamber extrasystol, aconitin infusion (aconitin arrhythmia; 4.0 mg/kg i.v.): 9.8 ± 0.34 min
- time to chamber tachycardia, aconitin infusion (aconitin arrhythmia; 4.0 mg/kg i.v.): 16.1 ± 2.62 min
- time to fibrillation, aconitin infusion (aconitin arrhythmia; 4.0 mg/kg i.v.): 17.4 ± 1.22 min
- time to chamber extrasystol, aconitin infusion (aconitin arrhythmia; 8.0 mg/kg i.v.): 13.8 ± 0.35 min
- time to chamber tachycardia, aconitin infusion (aconitin arrhythmia; 8.0 mg/kg i.v.): 27.0 ± 1.10 min
- time to fibrillation, aconitin infusion (aconitin arrhythmia; 8.0 mg/kg i.v.): 30.6 ± 1.72 min
- ED125 (aconitin arrhythmia): 1.53 mg/kg
- ED150 (aconitin arrhythmia): 2.44 mg/kg
- LD50 (acute toxicity) (mice): 53 mg/kg

Structure (SMILES): Cc1cccc(C)c1NC(=O)C(C)NC(=O)C1=CC(C)(C)NC1(C)C (stereo not shown) [Compound 20]
- time to chamber extrasystol, aconitin infusion (aconitin arrhythmia; 1.0 mg/kg i.v.): 7.1 ± 0.49 min
- time to chamber tachycardia, aconitin infusion (aconitin arrhythmia; 1.0 mg/kg i.v.): 12.3 ± 0.42 min
- time to fibrillation, aconitin infusion (aconitin arrhythmia; 1.0 mg/kg i.v.): 15.5 ± 0.59 min
- time to chamber extrasystol, aconitin infusion (aconitin arrhythmia; 2.0 mg/kg i.v.): 9.2 ± 0.65 min
- time to chamber tachycardia, aconitin infusion (aconitin arrhythmia; 2.0 mg/kg i.v.): 15.1 ± 0.22 min
- time to fibrillation, aconitin infusion (aconitin arrhythmia; 2.0 mg/kg i.v.): 19.5 ± 0.54 min
- time to chamber extrasystol, aconitin infusion (aconitin arrhythmia; 4.0 mg/kg i.v.): 11.7 ± 0.50 min
- time to chamber tachycardia, aconitin infusion (aconitin arrhythmia; 4.0 mg/kg i.v.): 18.4 ± 0.75 min
- time to fibrillation, aconitin infusion (aconitin arrhythmia; 4.0 mg/kg i.v.): 23.5 ± 1.63 min
- ED125 (aconitin arrhythmia): 1.21 mg/kg
- ED150 (aconitin arrhythmia): 1.91 mg/kg
- LD50 (acute toxicity) (mice): 15 mg/kg

Structure (SMILES): C=CC1CN2CCC1CC2C(O)c1ccnc2ccc(OC)cc12 (stereo not shown) [chinidin, reference compound]
- time to chamber extrasystol, aconitin infusion (aconitin arrhythmia; 5.0 mg/kg i.v.): 6.9 ± 0.06 min
- time to chamber tachycardia, aconitin infusion (aconitin arrhythmia; 5.0 mg/kg i.v.): 10.4 ± 0.45 min
- time to fibrillation, aconitin infusion (aconitin arrhythmia; 5.0 mg/kg i.v.): 13.7 ± 0.44 min
- time to chamber extrasystol, aconitin infusion (aconitin arrhythmia; 10.0 mg/kg i.v.): 8.4 ± 0.42 min
- time to chamber tachycardia, aconitin infusion (aconitin arrhythmia; 20.0 mg/kg i.v.): 15.7 ± 0.48 min
- time to fibrillation, aconitin infusion (aconitin arrhythmia; 20.0 mg/kg i.v.): 18.1 ± 0.22 min
- ED125 (aconitin arrhythmia): 6.75 mg/kg
